The text below walks through data of PubChem BioAssay AID1996.

In brackets after ≈: the same amount, converted by molar mass.

The conditions of this series: buffer; pH 7.4; 200.0 µM.
For `O=C(Nc1ccon1)c1ccc(Br)s1`, the solubility (kinetic) came to 5.5 µg/mL (≈ 20.1 µM).

For the molecule `CCN(Cc1ccncc1)C(=O)Cc1cccs1`, the solubility (kinetic) was over 39.1 µg/mL.

Consider `Cc1ccc(N2CC(C(=O)NCCN3CCOCC3)CC2=O)cc1` (centres undefined), for which the solubility (kinetic) was over 49.7 µg/mL.

Regarding `O=C1CSC(c2cccc([N+](=O)[O-])c2)N1c1ccccc1F` (centres undefined), the solubility (kinetic) stood at 37.7 µg/mL (≈ 118 µM).

For the molecule `CC(C)(C)c1cc(CN(CCO)CCO)c(O)c(C(C)(C)C)c1`, the kinetic solubility came out at 38.7 µg/mL (≈ 120 µM).

As for `COC(=O)c1ccc(NC(=S)NC(=O)C2CCC2)cc1`, the solubility (kinetic) was 4.9 µg/mL (≈ 16.8 µM).

Molecule `O=C(NCCN1CCN(c2ccccc2)CC1)Nc1ccc(Cl)cc1` came in with a kinetic solubility of 3.7 µg/mL (≈ 10.3 µM).

In the case of `Cc1ccccc1-n1c2nc(=O)n(C)c(=O)c-2cc2ccccc21`, the kinetic solubility was over 47.6 µg/mL.

The molecule `Cc1c(C)n(O)c2ccc3nonc3c12` gave a solubility (kinetic) of over 30.5 µg/mL.

As to `c1ccc(-c2csc(Nc3cccnc3)n2)cc1`, the solubility (kinetic) was determined as 2.2 µg/mL (≈ 8.68 µM).

`Cc1oc(C(N)=O)nc1-c1ccccc1` gave a kinetic solubility of over 30.3 µg/mL.

In turn, `Cc1cc(C)nc(NC(=S)Nc2ccc(F)cc2F)c1` displayed a solubility (kinetic) of 1.7 µg/mL (≈ 5.8 µM).

In turn, `CCCCN(C(C)=O)C1CC(=O)N(c2ccc(OCCC)cc2)C1=O` (centres undefined) returned a solubility (kinetic) of over 52 µg/mL.

Take `Cc1cccc(N2CCN(Cc3ccc([N+](=O)[O-])o3)CC2)c1C`: the kinetic solubility was 6.1 µg/mL (≈ 19.3 µM).

On to `C=CCNC(=O)c1cc(-c2cccnc2)nc2ccccc12`, for which the solubility (kinetic) is over 43.4 µg/mL.

As for `O=C(Nc1ccccc1C(=O)Nc1ccccc1)c1cccs1`, the solubility (kinetic) was 1 µg/mL (≈ 3.1 µM).

Molecule `O=C(O)C(=O)O.c1ccc(CNC23CC4CC(CC(C4)C2)C3)nc1` yielded a solubility (kinetic) of 45.8 µg/mL.

In the case of `O=C(c1ccc([N+](=O)[O-])cc1[N+](=O)[O-])N1CCCC1`, the solubility (kinetic) was over 39.8 µg/mL.

Turning to `COc1cc(OC)c(C=O)c(OC(=O)N2CCOCC2)c1`, the kinetic solubility is over 44.3 µg/mL.

In turn, `COCCNC(=O)NC(=O)CSc1nc(C)c(C)c(C)n1` returned a kinetic solubility of over 46.9 µg/mL.

For `Cc1csc2c(=O)sc(NC(=O)c3ccc(F)cc3)nc12`, the solubility (kinetic) was under 0.3 µg/mL.

Molecule `CCN(CC)Cc1nc2sc(C)c(C)c2c(=O)[nH]1` returned a solubility (kinetic) of 34.9 µg/mL (≈ 132 µM).

In turn, `CC(C)N(Cc1ccccc1)C(=S)Nc1ccccc1F` yielded a solubility (kinetic) of 40 µg/mL (≈ 132 µM).

Regarding `CCCCN(CCCC)c1nc(-c2ccncc2)nc2ccccc12`, the solubility (kinetic) was under 0.2 µg/mL.

Consider `COc1cc2[nH]c(=S)nc(NCc3cccnc3)c2cc1OC`, for which the solubility (kinetic) was found to be 12.2 µg/mL (≈ 37.2 µM).

Take `COc1ccc(Nc2nc3nonc3nc2N2CCCCC2)cc1`: the solubility (kinetic) was 5.3 µg/mL (≈ 16.2 µM).

For `COc1ccccc1NC(=O)/C(C#N)=C/c1ccncc1`, the solubility (kinetic) turned out to be 36 µg/mL (≈ 129 µM).

As for `O=C(NCc1cnn(-c2ccccc2)c1)C1CCC(=O)N(C2CC2)C1` (centres undefined), the solubility (kinetic) was over 50.8 µg/mL.

`CCCCc1nc2ccc(S(=O)(=O)O)cc2[nH]1` returned a solubility (kinetic) of 31.4 µg/mL (≈ 123 µM).

In turn, `Fc1ccccc1CNc1ncnc2sccc12` registered a solubility (kinetic) of 9.9 µg/mL (≈ 38.2 µM).

Regarding `Cc1cc(C(=O)Nc2ccc(S(=O)(=O)N3CCCC3)cc2)no1`, the solubility (kinetic) was determined as 2.2 µg/mL (≈ 6.56 µM).

`CC(=O)Nc1ccc2c3c(cccc13)C(=O)N(c1ccccc1)C2=O`: the solubility (kinetic) was 2.3 µg/mL (≈ 6.96 µM).

The molecule `CC(=O)c1c(-c2ccccc2)[nH]c2ccccc12` yielded a kinetic solubility of 1.4 µg/mL (≈ 5.95 µM).

In turn, `Cc1ccc2cc3c(nc2c1)N(c1ccccc1)CC3` showed a solubility (kinetic) of under 0.3 µg/mL.

`CC(CN1CCOCC1)OC(=O)c1ccc(Cl)cc1Cl.Cl` (centres undefined) yielded a kinetic solubility of 48.9 µg/mL.

Molecule `Cc1nc([N+](=O)[O-])cn1CCCCN1C(=O)c2ccccc2C1=O` showed a kinetic solubility of 8.3 µg/mL (≈ 25.3 µM).

`CCN(CC)S(=O)(=O)c1cccc(C(=O)N[C@H](C(=O)NC2=NCCS2)C(C)C)c1` yielded a solubility (kinetic) of 64.5 µg/mL (≈ 146 µM).

`O=C(COc1ccc(S(=O)(=O)N2CCCC2)cc1)N1CCCCC1` yielded a kinetic solubility of 47.6 µg/mL (≈ 135 µM).

In turn, `CC(=O)c1c(C)[nH]c(C(=O)O)c1C` showed a solubility (kinetic) of over 27.2 µg/mL.

As for `Nc1nnc(CC(=O)Nc2ccccc2)s1`, the solubility (kinetic) is over 35.1 µg/mL.

Regarding `O=C(CSc1nccc(=O)[nH]1)NC1CCCC1`, the kinetic solubility was 36 µg/mL (≈ 142 µM).

`Cn1c(N)cc(-c2ccc(F)cc2)c(C#N)c1=O`: the kinetic solubility is over 36.5 µg/mL.

Take `CC(NC(=S)Nc1cccc(C(F)(F)F)c1)C(C)(C)C` (centres undefined): the kinetic solubility came to 4.6 µg/mL (≈ 15.1 µM).

Regarding `CC(=O)N1C(=O)NC2=C(C(=O)CCC2)C1c1cccc([N+](=O)[O-])c1` (centres undefined), the solubility (kinetic) was over 49.4 µg/mL.

Molecule `O=C(CCCCCCCCN1C(=O)c2ccccc2C1=O)N1CCOCC1` showed a solubility (kinetic) of 43.4 µg/mL (≈ 117 µM).

Molecule `Cc1cccc2sc(NC(=O)Cn3c(C)csc3=O)nc12` returned a solubility (kinetic) of 5.1 µg/mL (≈ 16 µM).

For the molecule `COc1ccc(C(=O)O/N=C2\CCS(=O)(=O)c3sccc32)cc1`, the kinetic solubility was under 0.8 µg/mL.

Turning to `O=[N+]([O-])c1cccc(C2(O)COc3ccccc3O2)c1` (centres undefined), the solubility (kinetic) was over 41 µg/mL.

As for `Cc1cc(Nc2ccc(Cl)cc2)nc(N2CCOCC2)n1`, the kinetic solubility was found to be 1.8 µg/mL (≈ 5.91 µM).

`CCOC(=O)C1(Cc2ccccc2)C(=O)Nc2ccccc21` (centres undefined) came in with a kinetic solubility of 37.1 µg/mL (≈ 126 µM).

In turn, `COC(=O)C(=CC(=CN(C)C)C=C(C(=O)OC)C(=O)OC)C(=O)OC` gave a solubility (kinetic) of over 53.3 µg/mL.

`CN1C2CCC1CC(NS(=O)(=O)c1ccc(C#N)cc1)C2` (centres undefined) gave a solubility (kinetic) of 45.6 µg/mL (≈ 149 µM).

Regarding `Cc1csc(SCC(=O)NC2CCCC2)n1`, the solubility (kinetic) is over 38.5 µg/mL.

`Cc1ccc(C(=O)C[n+]2ccccc2C)cc1[N+](=O)[O-].[Br-]` returned a solubility (kinetic) of 48.3 µg/mL.

The molecule `CCOC(=O)c1c(S(=O)(=O)N2CCCC2)c(C)n(C)c1C` displayed a kinetic solubility of over 47.2 µg/mL.

`COC(=O)CN(c1cccc(C)c1)S(=O)(=O)c1ccccc1` yielded a solubility (kinetic) of 41.7 µg/mL (≈ 131 µM).

As to `Cc1ccccc1OCC(=O)N1CCCCCCC1`, the solubility (kinetic) is over 39.2 µg/mL.

The molecule `Cc1ccc(C(O)CCc2ccc(N)cc2)cc1` (centres undefined) gave a solubility (kinetic) of 31.9 µg/mL (≈ 132 µM).

As to `C/C(=N/OC(=O)CC(C)C)c1cc(-c2ccc(Cl)cc2)no1`, the kinetic solubility is under 0.3 µg/mL.

In turn, `CC(=O)Nc1ccc(-n2c(C)ccc2-c2ccccc2)cc1` showed a solubility (kinetic) of 4.4 µg/mL (≈ 15.2 µM).

Regarding `O=[N+]([O-])c1cc(C(F)(F)F)ccc1NCCc1ccccn1`, the kinetic solubility came out at 18.8 µg/mL (≈ 60.4 µM).

`O=C(OCc1cccc(F)c1)c1ccc2c(=O)n3c(nc2c1)CCC3`: the kinetic solubility was determined as 18.5 µg/mL (≈ 54.7 µM).

In the case of `NC(=O)C1CCN(C(=O)COc2ccc3c4c(c(=O)oc3c2)CCCC4)CC1`, the kinetic solubility was over 57.7 µg/mL.

As to `COc1ccc(N2CCN(CC(=O)c3ccc(Cl)cc3)CC2)cc1`, the solubility (kinetic) was 45.7 µg/mL (≈ 133 µM).

Consider `CC1(C)CC(NC(=O)Cc2ccccc2)CC(C)(C)N1.Cl`, for which the solubility (kinetic) was over 46.6 µg/mL.

As to `CC(=O)N1N=C(c2ccccc2)OC1c1cccnc1` (centres undefined), the kinetic solubility was over 40.1 µg/mL.

For the molecule `O=C(COc1ncnc2sccc12)Nc1ccc(F)cc1F`, the solubility (kinetic) was over 48.2 µg/mL.

`Cc1c(C)n(Cc2ccccc2)c2ncnc(Cl)c12`: the solubility (kinetic) was determined as 0.3 µg/mL (≈ 1.1 µM).

Consider `O=C(Nc1ncccn1)c1cccc(F)c1`, for which the kinetic solubility is over 32.6 µg/mL.

The molecule `CCC(C)NC(=O)Cc1c(OC)ccc2cc(Br)ccc12` (centres undefined) gave a solubility (kinetic) of under 0.8 µg/mL.

`CCC(C)NC(=O)c1ccc2c(Cl)c3c(nc2c1)CCC3` (centres undefined): the solubility (kinetic) amounted to 9.9 µg/mL (≈ 32.7 µM).

The molecule `Cc1cccc(C)c1NC(=O)c1c[nH]c2ccccc12` showed a kinetic solubility of over 39.6 µg/mL.

In the case of `CC1CC(=O)Nc2ccccc2N1S(=O)(=O)c1cccs1` (centres undefined), the kinetic solubility worked out at 17 µg/mL (≈ 52.7 µM).

`Cc1cccc(NC(=O)CN2C(=O)C(C)Oc3ccccc32)n1` (centres undefined) showed a solubility (kinetic) of over 46.7 µg/mL.

Broadly, the kinetic solubility is solubility judged after dilution from a stock solution rather than from solid.
